{"source": "patent US20070072209A1", "about": "“Methods of treatment and diagnosis of Kaposi's sarcoma (KS) and KS related diseases” (priority 2005, published 2007)", "key": {"[1]": {"test_system": "KSHV-infected DMVEC", "experiment": "XTT assay of PMO-AS effect on post-confluent growth (Example 5)", "type": "cell-based, human", "settings": "72 hours", "experimental": "XTTAssay. Metabolism of XTT to a water-soluble formazan dye by viable cells gives a quantitative determination of relative cell number. The XTT assay was thus used to quantitatively assess the effect of PMO-AS treatment on KSHV focus formation and post-confluent growth. For these assays, KSHV-infected and uninfected DMVEC were seeded into 96-well flat-bottom Primaria trays at 10^4 cells/well, loaded with PMO-AS after overnight equilibration, and cultured for 72 hrs. For the final 4 hours of culture, 50 μl XTT (Roche Diagnostics, Indianapolis, Ind.) was added to each well and the optical density (OD) of each well was recorded by an ELISA reader between 450 and 500 nm. To verify efficient (>80%) PMO-AS uptake in the 96-well format, cells were treated with a FITC-tagged morpholino (FITC-PMO) and uptake visually assessed under a fluorescence microscope. This FITC-PMO also served as a control for any non-specific effect of the PMO-AS:EPEI complex on DMVEC growth. As a positive control, cells were treated with a c-Kit PMO-AS previously shown to inhibit KSHV-induced transformation (Moses, 2002). For NIH 3T3 cells, the XTT assay was performed in 96-well plates at a cell density of 10^4 cells/well, and OD measured at 48 hours.\nIn view of the above-described effects of Neuritin- and RDC1-specific PMO-AS in inhibiting focus formation of KSHV-infected DMVEC, a further determination was made to determine whether such inhibition correlated with reduced cellular proliferation. Such reduced cellular proliferation would be expected, because the development of multilayered cell foci requires additional cell growth that would not occur if contact inhibition was maintained. A colorimetric cellular proliferation assay was used to assess cell growth. […] This growth can be accurately assessed by monitoring the metabolism of XTT added to each well by measurement of optical density at […] (e.g., 4 hours post XTT addition). […] To verify efficient (>80%) PMO-AS uptake in the 96-well format, cells were treated with a FITC-tagged PMO-AS (FITC-PMO) and uptake visually assessed under a fluorescence microscope. […]"}, "[2]": {"test_system": "KSHV", "experiment": "Immunofluorescent staining for latent (LANA-1/ORF73) and early lytic (ORF59) viral proteins after PMO-AS", "type": "cell-based", "settings": "PMO-AS-treated KSHV-infected DMVEC", "description": "KSHV-infected DMVEC. DMVECs were used as an in vitro model for examining cancerous transformation and viral replication, based, inter alia, on that fact that neoplastic cells in KS tumors are predominantly of vascular origin, whereas KSHV is primarily found in cells of endothelial origin. Specifically, a previously described DMVEC system (Moses et al., J. Virol. 73:6892-6902, 1999) was used for studying infection and transformation by KSHV. Briefly, DMVEC's were immortalized with the E6/E7 genes of human papillomavirus (HPV)-16 prior to infection with KSHV. […] KSHV was obtained from the supernatant of KSHV-infected B-cell lines (e.g., TPA-stimulated BCBL-1 cells). Infection was verified by DNA PCR for amplification of the KS330 BamH1 fragment of the ORF 26 gene, and RT-PCR for the spliced mRNA from the ORF29 gene. The percentage of latently infected cells was determined by immunofluorescent staining for LANA/ORF73. Lytic induction was evaluated with antibodies against an early lytic protein ORF59/PF-8 and a late lytic glycoprotein ORF K8.1A/B. DMVEC were used for experiments when 90% of cells expressed ORF73. In the absence of chemical induction, 2-5% of infected cells expressed ORF59 with approximately 10% of the ORF59-positive cells expressing K8.1A/B. Lytic replication can be induced, however, using phorbol esters such as […] (PMA) providing the ability to look for host genes involved in, or modulated by the lytic cycle as well.\nTo ascertain whether PMO-AS treatment could be indirectly influencing cell phenotype through an effect on KSHV lytic replication, cells treated with PMO-AS against c-Kit, RDC1 and Neuritin were evaluated by immunofluorescent staining for expression of latent (LANA-1/ORF73) and early lytic (ORF59) viral proteins as previously described (Moses, 1999)."}}, "data": [{"substance": "KIT: FITC-labeled PMO targeting the start codon of c-Kit, CGCCTCTCATCGCGGTAGCTGCG (SEQ ID NO:21) (all phosphorodiamidate morpholino (PMO); FITC label attached, position not given here)", "values": [{"measurement": "effect on cell growth in XTT assay (in words)", "setting": "[1]", "result": "dramatically inhibited cell growth"}, {"measurement": "expression of ORF73 (latent viral protein)", "setting": "[2]", "result": "maintained expression of ORF73"}]}, {"substance": "Neuritin: PMO antisense to Neuritin, TTAACTCCCATCCTACGTTTAGTCA (SEQ ID NO:19) (all phosphorodiamidate morpholino (PMO); delivered paired with partially complementary DNA oligo (Special Delivery))", "values": [{"measurement": "effect on cell growth in XTT assay (in words)", "setting": "[1]", "result": "dramatically inhibited cell growth"}, {"measurement": "expression of ORF73 (latent viral protein)", "setting": "[2]", "result": "maintained expression of ORF73"}]}, {"substance": "RDC-1: PMO antisense to RDC-1, GAAGAGATGCAGATCCATCGTTCTG (SEQ ID NO:15) (all phosphorodiamidate morpholino (PMO); delivered paired with partially complementary DNA oligo (Special Delivery))", "values": [{"measurement": "effect on cell growth in XTT assay (in words)", "setting": "[1]", "result": "dramatically inhibited cell growth"}, {"measurement": "expression of ORF73 (latent viral protein)", "setting": "[2]", "result": "maintained expression of ORF73"}]}]}
